Measurements taken from patent publication USRE37886E1, “1-(1,2-Disubstituted piperidinyl)-4-substituted piperazine derivatives” (Janssen Pharmaceuticals, N.V., priority 1995, dated 2002).

Assays:
[1] = tested on: substance P induced plasma extravasation; assay: Antagonism of substance P induced plasma extravasation in guinea-pigs; assay type: in vivo; conditions: lowest active dose, female guinea-pigs; for LAD nose: compound 1 hour prior to substance P (2 mg/kg, femoral artery), blue colouring of nose 10 minutes after challenge; for LAD conjunctiva / LAD forepaws / LAD trachea / LAD urinary bladder: compound 1 hour prior to substance P; for LAD conjunctiva: blue colouring of conjunctiva 10 minutes after challenge; for LAD forepaws: blue colouring of forepaws 10 minutes after challenge; for LAD trachea: blue colouring of trachea 30 minutes after challenge; for LAD urinary bladder: blue colouring of urinary bladder 30 minutes after challenge
Description: (§1) The compounds of the present invention are potent inhibitors of neurokinin-mediated effects, in particular those mediated via the NK1 receptor, and may therefore be described as tachykinin antagonists, especially as substance P antagonists, as indicated in vitro by the antagonism of substance P induced relaxation of pig coronary arteries which is described hereinafter. The binding affinity of the present compounds for the human, guinea-pig and gerbil neurokinin receptors may be determined in vitro in a receptor binding test using ^3H-substance-P as radioligand. The subject compounds also show substance-P antagonistic activity in vivo as may be evidenced by, for instance, the antagonism of substance P-induced plasma extravasation in guinea-pigs, or the antagonism of drug-induced emesis in ferrets (Watson et al., Br. J. Pharmacol. 115, 84-94, 1995).
Antagonism of substance P induced plasma extravasation in guinea-pigs
Plasma extravasation was induced by injection of substance P (2 mg/kg) in the femoral artery of female guinea-pigs. Evans Blue dye (30 mg/kg) was injected simultaneously. The test compound or solvent was administered 1 hour prior to substance P injection. 10 minutes after challenge, the aminals were checked for blue colouring (a direct measure for plasma extravasation) of the nose, the forepaws, and the conjectiva. 30 minutes after challenge, the animals were sacrificed by CO2 gas inhalation and checked for blue colouring of the trachea and the urinary bladder. […]

[2] = tested on: substance-P induced relaxation of the pig coronary arteries; assay: Antagonism of substance-P induced relaxation of the pig coronary arteries; assay type: cell-based; conditions: concentration at which 50% of the response to 10^−9 M substance P was inhibited, 30 minutes incubation, prostaglandin F2a precontracted segments
Description: as §1
Antagonism of substance-P induced relaxation of the pig coronary arteries
Segments of coronary artieries taken from pigs (killed by injection of an overdose of sodium pentobarbital) were inverted and mounted for recordign of isometric tension in organ baths (volume 20 ml) with the endothelium at the outside. The preparations were bathed in Krebs-Henseleit solution. The solution was kept at 37° C. and gassed with a mixture of O2/CO2 (95/5). After stabilisation of the preparations, prostaglandin F2a (10^−5 M) was administered to induce a contraction. This was repeated until contractivle responses became stable. Then prostaglandin F2a was again administered and substance P(3×10^−10 M and 10^−9 M cumulatively) was added. Substance P induced endothelium dependent relaxations. After washing away the agonists, a known concentratin of a compound of formula (I) was added. After an incubation period of 30 minutes, prostaglandin F2a ([…]) and the same concentrations of sbustance P as described above were again administered in the presence of the compound to be tested. Relaxations caused by substance P were expressed as relaxations under control conditions, and percent inhibition of the response to […] substance P was taken as a measure of the antagonistic activity of the compound to be tested. Table 6 lists the IC50 values (concentration at which 50% of the response to […] substance P was inhibited by the test compound) for the tested compounds.

Row | Compound | LAD nose [1] [mg/kg] | LAD conjunctiva [1] [mg/kg] | LAD forepaws [1] [mg/kg] | LAD trachea [1] [mg/kg] | LAD urinary bladder [1] [mg/kg] | IC50 [2] [nM] | IC50 ([2]; Sus scrofa, 0.5 h) [nM]
1 | Cc1cccc(C)c1NC(=O)CN1CCN([C@@H]2CCN(C(=O)c3cc(C(F)(F)F)cc(C(F)(F)F)c3)[C@@H](Cc3cc(F)cc(F)c3)C2)CC1 (racemic) [Compound 133, (±)-trans-4-[1-[3,5-bis(trifluoromethyl)benzoyl]-2-[(3,5-difluorophenyl)methyl]-4-piperdinyl]-N-(2,6-dimethylphenyl)-1-piperazineacetamide] | 2.50 | 2.50 | 2.50 | 10.0 | 10.0 | 0.62 | 
2 | Cc1cccc(C)c1NC(=O)CN1CCN(C2CCN(C(=O)c3cc(C(F)(F)F)cc(C(F)(F)F)c3)C(Cc3ccc(F)c(F)c3)C2)CC1 (racemic) [Compound 134] | 10.0 | 10.0 | 10.0 | 10.0 | 10.0 | 0.04 | 
3 | Cc1cccc(C)c1NC(=O)CN1CCN(C2CCN(C(=O)c3cc(C(F)(F)F)cc(C(F)(F)F)c3)C(Cc3ccc(F)c(F)c3)C2)CC1 (racemic) [Compound 135] | 0.63 | 0.63 | 0.63 | 2.50 | >40 | 0.01 | 
4 | Cc1cccc(C)c1NC(=O)CN1CCN(C2CCN(C(=O)c3cc(C(F)(F)F)cc(C(F)(F)F)c3)C(Cc3ccc(Cl)c(Cl)c3)C2)CC1 (racemic) [Compound 138] | 2.50 | 2.50 | 2.50 | 10.0 | >40 | 0.16 | 
5 | Cc1cccc(C)c1NC(=O)CN1CCN([C@@H]2CCN(C(=O)c3cc(C(F)(F)F)cc(C(F)(F)F)c3)[C@@H](Cc3ccc(Cl)c(Cl)c3)C2)CC1 (racemic) [Compound 139, (±)-trans-4-[1-[3,5-bis(trifluoromethyl)benzoyl]-2-[(3,4-dichlorophenyl)methyl]-4-piperidinyl]-N-(2,6-dimethylphenyl)-1-piperazineacetamide] | 2.50 | 2.50 | 2.50 | 2.50 | 2.50 |  | 0.13
6 | Cc1cccc(C)c1NC(=O)CN1CCN([C@@H]2CCN(C(=O)c3cc(C(F)(F)F)cc(C(F)(F)F)c3)[C@@H](Cc3ccccc3)C2)CC1.O=C(O)C[C@H](O)C(=O)O (relative stereo) [Compound 95, (+)-(B)-trans-4-[1-[3,5-bis(trifluoromethyl)benzoyl]-2-(phenylmethyl)-4-piperidinyl]-N-(2,6-dimethylphenyl)-1-piperazine acetamide. (L)-malic acid (1:1)] | 0.31 | 0.31 | 0.31 | 0.63 | 2.50 | 0.1 | 
7 | Cc1cccc(C)c1NC(=O)CN1CCN([C@@H]2CCN(C(=O)c3cc(C(F)(F)F)cc(C(F)(F)F)c3)[C@@H](Cc3ccccc3)C2)CC1.O=C(O)/C=C/C(=O)O (relative stereo) [Compound 128, (B-trans)-4-[1-[3,5-bis(trifluoromethyl)benzoyl]-2-(phenylmethyl)-4-piperidinyl]-N-(2,6-dimethylphenyl)-1-piperazineacetamide (E)-2-butenedioate (1:1)] | 0.63 | 0.63 | 0.63 | >40 | 10.0 | 0.35 | 
8 | Cc1cccc(C)c1NC(=O)CN1CCN(C2CCN(C(=O)c3cc(C(F)(F)F)cc(C(F)(F)F)c3)C(Cc3ccccc3)C2)CC1 (single isomer, unassigned) [Compound 42] | 1.25 | 2.50 | 1.25 | 5.00 | 5.00 | 0.93 | 
9 | Cc1cccc(C)c1NC(=O)CN1CCN(C2CCN(C(=O)c3cc(C(F)(F)F)cc(C(F)(F)F)c3)C(Cc3ccc(C(F)(F)F)cc3)C2)CC1.O=C(O)/C=C/C(=O)O (single isomer, unassigned) [Compound 136] | 2.50 | 2.50 | 2.50 | 2.50 | 2.50 | 0.31 | 
10 | Cc1cccc(C)c1NC(=O)CN1CCN(C2CCN(C(=O)c3cc(C(F)(F)F)cc(C(F)(F)F)c3)C(Cc3ccc(C(F)(F)F)cc3)C2)CC1 (single isomer, unassigned) [Compound 137] | 2.50 | 2.50 | 2.50 | 2.50 | 2.50 | 0.23 | 
11 | O=C(c1cc(C(F)(F)F)cc(C(F)(F)F)c1)N1CCC(N2CCN(CCn3c(=O)[nH]c4ccccc43)CC2)CC1Cc1ccccc1 (stereo not drawn) [Compound 19] | 2.50 | 2.50 | 2.50 | 10.0 | >40 | 0.54 | 
12 | CCOCCn1c(N2CCN(C3CCN(C(=O)c4cc(C(F)(F)F)cc(C(F)(F)F)c4)C(Cc4ccccc4)C3)CC2)nc2ccccc21 (stereo not drawn) [Compound 22] | 2.50 | 2.50 | 2.50 | 10.0 | >40 | 0.37 | 
13 | Cc1ncc(Cn2c(N3CCN(C4CCN(C(=O)c5cc(C(F)(F)F)cc(C(F)(F)F)c5)C(Cc5ccccc5)C4)CC3)nc3ccccc32)o1 (stereo not drawn) [Compound 24] | 2.50 | 10.0 | 2.50 | 10.0 | >40 | 0.64 | 
14 | O=C(CN1CCN(C2CCN(C(=O)c3cc(C(F)(F)F)cc(C(F)(F)F)c3)C(Cc3ccccc3)C2)CC1)NC(c1ccccc1)c1ccccc1 (stereo not drawn) [Compound 33] | 2.50 | 2.50 | 10.0 | >40 | >40 | 0.6 | 
15 | Cc1ncc(Cn2c(N3CCCN(C4CCN(C(=O)c5cc(C(F)(F)F)cc(C(F)(F)F)c5)C(Cc5ccccc5)C4)CC3)nc3ccccc32)o1 (stereo not drawn) [Compound 34] | 2.50 | 2.50 | 10.0 | 10.0 | 10.0 | 0.35 | 
16 | COc1ccccc1NC(=O)CN1CCN(C2CCN(C(=O)c3cc(C(F)(F)F)cc(C(F)(F)F)c3)C(Cc3ccccc3)C2)CC1 (stereo not drawn) [Compound 38] | 10.0 | 10.0 | 10.0 | >40 | >40 | 0.86 | 
17 | O=C(CN1CCN(C2CCN(C(=O)c3cc(C(F)(F)F)cc(C(F)(F)F)c3)C(Cc3ccccc3)C2)CC1)NC1(c2ccccc2)CCCCC1 (stereo not drawn) [Compound 48] | 2.50 | 2.50 | 2.50 | 2.50 | 2.50 | 0.26 | 
18 | O=C(CN1CCN(C2CCN(C(=O)c3cc(C(F)(F)F)cc(C(F)(F)F)c3)C(Cc3ccccc3)C2)CC1)NC1(c2ccccc2)CCCCC1 (stereo not drawn) [Compound 49] | 2.50 | 2.50 | 2.50 | 10.0 | >40 | 0.59 | 
